{"source": "patent US20040077607A1", "about": "(priority 2002, published 2004)", "key": {"[1]": {"details": "dog, in vivo; cited from earlier work"}, "[2]": {"system": "Josiach strain of Lassa Virus", "design": "species or system CBA mice", "details": "mouse, in vivo"}, "[3]": {"details": "simulated intestinal fluid, 100 μM, 37° C."}, "[4]": {"details": "100 μM, mouse liver homogenate"}, "[5]": {"details": "for mean percent hydrolysis in plasma: 250 μM"}, "[6]": {"details": "37° C."}, "[7]": {"details": "mouse, in vivo; cited from earlier work"}, "[8]": {"details": "in vivo; cited from earlier work"}, "[9]": {"details": "rat, in vivo; cited from earlier work"}, "[10]": {"details": "female, Balb/c, mouse, in vivo, iv"}, "[11]": {"test": "in vivo", "details": "female, Balb/c, mouse, iv, 75 mg/kg, Balb/c mice, plasma; for AUC / clearance / Cmax / Vd: after i.v. 75 mg/kg Ala-d4T-MP; for clearance: CL; for Vd: Vss; for half-life: t1/2, after i.v. 75 mg/kg Ala-d4T-MP"}, "[12]": {"test": "in vivo", "details": "female, Balb/c, mouse, iv, 100 mg/kg"}, "[13]": {"test": "not given", "remark": "listed apart in the source"}, "[14]": {"test": "in vivo", "details": "female, Balb/c, mouse, po, 100 mg/kg, Balb/c mice, plasma; for AUC / Cmax / Tmax: after oral 100 mg/kg d4T-5′-[p-bromophenyl methoxyalaninyl phosphate]; for half-life: t1/2, after oral 100 mg/kg d4T-5′-[p-bromophenyl methoxyalaninyl phosphate]"}, "[15]": {"details": "after i.v. 40 mg/kg d4T, Balb/c mice, plasma; mean ± S.E.M. (in parentheses)"}, "[16]": {"details": "after oral 100 mg/kg d4T-5′-[p-bromophenyl methoxyalaninyl phosphate], Balb/c mice, plasma; mean ± S.E.M. (in parentheses)"}, "[17]": {"details": "estimate from composite pooled data"}, "[18]": {"details": "model fit after i.v. 75 mg/kg Ala-d4T-MP, C.V. of modeling in parentheses, 75 mg/kg"}}, "note": "“And” between values parts separate entries of the source, which are not always exact repeats. Identical values can stand only once. Like-named read-outs stand apart in the source and are kept apart here."}
{"smiles": "COC(=O)C(C)NP(=O)(OC[C@@H]1C=C[C@H](n2cc(C)c(=O)[nH]c2=O)O1)Oc1ccc(Br)cc1", "note": "(stereo partly drawn) [d4T-5′-[p-bromophenylmethoxyalaninyl phosphate]]", "values": [{"measurement": "tolerability", "setting": "[1]", "value": "very well tolerated"}, {"measurement": "median survival", "setting": "[2]", "value": "> 21", "unit": "days"}, {"measurement": "mice remaining healthy beyond the 21-day observation period", "setting": "[2]", "value": 9, "unit": "mice"}, {"measurement": "mice surviving beyond the 21 day observation period", "setting": "[2]", "value": 6, "unit": "mice"}, {"measurement": "probability of survival at 21 days", "setting": "[2]", "value": "75% and 90%"}, {"measurement": "decomposed in intestinal fluid", "setting": "[3]; within 2 hours", "value": "approximately 94%"}, {"measurement": "time to decomposition after incubation with liver homogenate", "setting": "[4]", "value": "≤ 30", "unit": "min"}, {"measurement": "mean percent hydrolysis in plasma", "setting": "[5]; EDTA (1 mM; arylesterase), 5 min", "value": 99, "unit": "%"}, {"measurement": "mean percent hydrolysis in plasma", "setting": "[5]; EDTA (1 mM; arylesterase), 10 min", "value": 100, "unit": "%"}, {"measurement": "mean percent hydrolysis in plasma", "setting": "[5]; EDTA (1 mM; arylesterase), 15 min", "value": 100, "unit": "%"}, {"measurement": "mean percent hydrolysis in plasma", "setting": "[5]; EDTA (1 mM; arylesterase), 30 min", "value": 100, "unit": "%"}, {"measurement": "mean percent hydrolysis in plasma", "setting": "[5]; EDTA (1 mM; arylesterase), 60 min", "value": 100, "unit": "%"}, {"measurement": "mean percent hydrolysis in plasma", "setting": "[5]; EDTA (1 mM; arylesterase), 120 min", "value": 100, "unit": "%"}, {"measurement": "decomposition in plasma, effect of EDTA", "setting": "[5]; EDTA, 37° C.", "value": "not affected"}, {"measurement": "mean percent hydrolysis in plasma", "setting": "[5]; No inhibitor, 5 min", "value": 95, "unit": "%"}, {"measurement": "mean percent hydrolysis in plasma", "setting": "[5]; No inhibitor, 10 min", "value": 98, "unit": "%"}, {"measurement": "mean percent hydrolysis in plasma", "setting": "[5]; No inhibitor, 15 min", "value": 99, "unit": "%"}, {"measurement": "mean percent hydrolysis in plasma", "setting": "[5]; No inhibitor, 30 min", "value": 100, "unit": "%"}, {"measurement": "mean percent hydrolysis in plasma", "setting": "[5]; No inhibitor, 60 min", "value": 100, "unit": "%"}, {"measurement": "mean percent hydrolysis in plasma", "setting": "[5]; No inhibitor, 120 min", "value": 100, "unit": "%"}, {"measurement": "mean percent hydrolysis in plasma", "setting": "[5]; Physostigmine (0.1 mM; cholinesterase), 5 min", "value": 43, "unit": "%"}, {"measurement": "mean percent hydrolysis in plasma", "setting": "[5]; Physostigmine (0.1 mM; cholinesterase), 10 min", "value": 65, "unit": "%"}, {"measurement": "mean percent hydrolysis in plasma", "setting": "[5]; Physostigmine (0.1 mM; cholinesterase), 15 min", "value": 76, "unit": "%"}, {"measurement": "mean percent hydrolysis in plasma", "setting": "[5]; Physostigmine (0.1 mM; cholinesterase), 30 min", "value": 89, "unit": "%"}, {"measurement": "mean percent hydrolysis in plasma", "setting": "[5]; Physostigmine (0.1 mM; cholinesterase), 60 min", "value": 100, "unit": "%"}, {"measurement": "mean percent hydrolysis in plasma", "setting": "[5]; Physostigmine (0.1 mM; cholinesterase), 120 min", "value": 100, "unit": "%"}, {"measurement": "decomposition in plasma, effect of physostigmine", "setting": "[5]; physostigmine 0.1 mM, 37° C.", "value": "partially inhibited"}, {"measurement": "stability in whole blood", "setting": "[6]; 250 μM", "value": "very unstable"}, {"measurement": "time to complete decomposition in whole blood", "setting": "[6]; 250 μM", "value": "≤ 30", "unit": "min"}, {"measurement": "decomposed in whole blood", "setting": "[6]; 250 μM, 5 minutes", "value": 68, "unit": "%"}, {"measurement": "decomposed in whole blood", "setting": "[6]; 250 μM, 10 minutes", "value": 87, "unit": "%"}, {"measurement": "decomposed in whole blood", "setting": "[6]; 250 μM, 15 minutes", "value": 92, "unit": "%"}, {"measurement": "acute or subacute toxicity", "setting": "[7]", "value": "very well tolerated without any detectable acute or subacute toxicity"}, {"measurement": "toxicity on daily administration", "setting": "[7]", "value": "not associated with any detectable toxicity"}, {"measurement": "stability in plasma", "setting": "250 μM", "value": "very unstable"}, {"measurement": "time to complete decomposition in plasma", "setting": "250 μM", "value": "≤ 30", "unit": "min"}, {"measurement": "decomposed following incubation with plasma", "setting": "250 μM, after 5 minutes", "value": "over 95%"}, {"measurement": "tolerability", "setting": "[8]", "value": "very well tolerated"}, {"measurement": "acute or subacute toxicity", "setting": "[9]", "value": "very well tolerated without any detectable acute or subacute toxicity"}, {"measurement": "toxicity on daily administration", "setting": "[9]", "value": "not associated with any detectable toxicity"}, {"measurement": "fraction converted to Ala-d4T-MP", "setting": "[10]", "value": 23, "unit": "%"}, {"measurement": "fraction converted to d4T", "setting": "[10]", "value": 24, "unit": "%"}]}
{"smiles": "Cc1cn([C@H]2C=C[C@@H](COP(=O)(O)N[C@@H](C)C(=O)O)O2)c(=O)[nH]c1=O", "note": "[Ala-d4T-MP, alaninyl-d4T-monophosphate]", "values": [{"measurement": "AUC", "setting": "[11]; [17]", "value": 194, "unit": "µM·h"}, {"measurement": "AUC", "setting": "[11]; mean ± S.E.M. (in parentheses)", "value": 196, "unit": "µM·h"}, {"measurement": "clearance", "setting": "[11]; [17]", "value": 15.8, "unit": "mL/min/kg"}, {"measurement": "clearance", "setting": "[11]; mean ± S.E.M. (in parentheses)", "value": 15.7, "unit": "mL/min/kg"}, {"measurement": "Cmax", "setting": "[11]; [17]", "value": 1210, "unit": "µM"}, {"measurement": "Cmax", "setting": "[11]; mean ± S.E.M. (in parentheses)", "value": 1660, "unit": "µM"}, {"measurement": "Vd", "setting": "[11]; [17]", "value": 0.276, "unit": "L/kg"}, {"measurement": "Vd", "setting": "[11]; mean ± S.E.M. (in parentheses)", "value": 0.413, "unit": "L/kg"}, {"measurement": "half-life", "setting": "[11]; [17]", "value": 28.5, "unit": "min"}, {"measurement": "half-life", "setting": "[11]; mean ± S.E.M. (in parentheses)", "value": 91.5, "unit": "min"}, {"measurement": "stability in intestinal fluid", "setting": "[3]", "value": "stable"}, {"measurement": "stability in whole blood", "setting": "[6]; 100 μM, for 1 day", "value": "stable"}, {"measurement": "stability in plasma", "setting": "100 μM, for 1 day", "value": "stable"}, {"measurement": "AUC", "setting": "[12]; AUC", "value": 47.6, "unit": "µM·h"}, {"measurement": "Cmax", "setting": "[12]; Cmax", "value": 67.4, "unit": "µM"}, {"measurement": "half-life", "setting": "[12]; t1/2", "value": 129, "unit": "min"}, {"measurement": "Tmax", "setting": "[12]; tmax", "value": 5.9, "unit": "min"}, {"measurement": "CLm1 as share of the total systemic clearance", "setting": "[13]; after i.v. 75 mg/kg Ala-d4T-MP", "value": 99, "unit": "%"}, {"measurement": "fraction converted to d4T", "setting": "[13]; after intravenous administration of Ala-d4T-MP", "value": 15, "unit": "%"}, {"measurement": "CLml (metabolic clearance of Ala-d4T-MP / formation clearance of d4T)", "setting": "[13]; [18]", "value": "15.6 ml/min/kg and 15.6 (16.6%) ml/min/kg"}, {"measurement": "CLpd (distribution of Ala-d4T-MP to the extravascular compartment)", "setting": "[13]; [18]", "value": "4.7 ml/min/kg and 4.7 (44.7%) ml/min/kg"}, {"measurement": "AUC", "setting": "[14]; [17]", "value": 22.5, "unit": "µM·h"}, {"measurement": "AUC", "setting": "[14]; mean ± S.E.M. (in parentheses)", "value": 22.6, "unit": "µM·h"}, {"measurement": "Cmax", "setting": "[14]; [17]", "value": 12.7, "unit": "µM"}, {"measurement": "Cmax", "setting": "[14]; mean ± S.E.M. (in parentheses)", "value": 15.6, "unit": "µM"}, {"measurement": "half-life", "setting": "[14]; [17]", "value": 66.4, "unit": "min"}, {"measurement": "half-life", "setting": "[14]; mean ± S.E.M. (in parentheses)", "value": 56.1, "unit": "min"}, {"measurement": "Tmax", "setting": "[14]; [17]", "value": 10.3, "unit": "min"}, {"measurement": "Tmax", "setting": "[14]; mean ± S.E.M. (in parentheses)", "value": 9.3, "unit": "min"}]}
{"smiles": "Cc1cn([C@H]2C=C[C@@H](CO)O2)c(=O)[nH]c1=O", "note": "[d4T, 2′,3′-didehydro-2′,3′-dideoxythymidine]", "values": [{"measurement": "AUC", "setting": "[15]", "value": "(12173.6 ± 559.5) μM · min"}, {"measurement": "AUC", "setting": "[16]", "value": "(5928.4 ± 294.6) μM · min"}, {"measurement": "Cmax", "setting": "[16]", "value": 29.5, "unit": "µM"}, {"measurement": "Tmax", "setting": "[16]", "value": "(45.2 ± 5.2) min"}, {"measurement": "t1/2", "setting": "[16]", "value": "(102.6 ± 3.8) min"}, {"measurement": "Tmax", "setting": "[13]; after i.v. 75 mg/kg Ala-d4T-MP, Balb/c mice, plasma, mean ± S.E.M. (in parentheses)", "value": "(5.0 ± 1.2) min"}, {"measurement": "CLme (elimination of d4T derived from Ala-d4T-MP)", "setting": "[13]; [18]", "value": "88.4 ml/min/kg and 88.4 (13.0%) ml/min/kg"}]}
